Results from the Biogen ADME set (Fang et al. 2023).
Converted amounts (≈) assume the structure as drawn.

Settings: for aqueous solubility: pH 6.8

SMILES	MDR1-MDCK efflux ratio	intrinsic clearance, human liver microsomes [mL/min/kg]	intrinsic clearance, rat liver microsomes [mL/min/kg]	aqueous solubility [µg/mL]	fraction unbound, human plasma	fraction unbound, rat plasma
Clc1cccc(CNc2nc(C3CC3)no2)c1	0.476	22	165	29.3 (≈ 117 µM)	–	–
Cc1noc(C)c1CSC(=N)N1CCOCC1	1.21	≤ 4.74	≤ 10.7	–	–	–
O=C(NC1CCCCC1)N1CCc2nc3ccccn3c(=O)c2C1	–	≤ 4.74	123	50 (≈ 153 µM)	–	–
COc1cccc(Cn2cnc3c(c2=O)COCC3)c1Cl	0.9	5.71	138	–	–	–
Cc1cc(NC(=O)CN(C)CCOc2ccccc2)on1	0.516	166	622	–	–	–
CC(=O)NCC(=O)N1[C@@H]2CC[C@H]1c1ccc(Nc3ncc(C(F)(F)F)c(NC4CCC4)n3)cc12	29.1	20.8	90.9	–	–	–
CN(Cc1ccc(N)nc1)c1nc(C(F)(F)F)cs1	0.598	≤ 4.74	116	–	–	–
CCn1nc(CNC(=O)C2CCOCC2)c2ccccc21	2.83	≤ 4.74	112	–	–	–
COc1cc2nc(-c3ccc(N4CCN(C)CC4)cc3)nc(NCCN3CCOCC3)c2cc1OC	–	8.7	90.9	–	–	–
CONC(=O)c1ccccc1Nc1cc(Nc2cc(C)nn2C(C)C)ncc1Cl	–	66.2	262	24.2 (≈ 58.4 µM)	–	–
CCCNC(=O)c1ccnc(N(C)C)c1	0.616	39	83.5	38.1 (≈ 184 µM)	–	–
COc1cc(-c2ccc(C)s2)cc2c1OCCN(c1noc(C)n1)C2	–	57.4	940	3.01 (≈ 8.42 µM)	–	–
Cn1c(-c2ccc(F)cc2)cnc1NC(=O)CCC(=O)N1CC(=O)Nc2ccccc21	48.2	40.5	322	61.3 (≈ 145 µM)	–	–
O=C(Cn1nc(Cc2ccccc2)c2ccccc2c1=O)NCc1ncc[nH]1	92.6	50.9	3330	–	–	–
Cc1nc(CN2C[C@@H](c3ccc4c(c3)OCO4)[C@@H]3[C@H]2C2CCN3CC2)co1	53.4	96.7	205	48.3 (≈ 131 µM)	–	–
COc1nc(C)nc(N(C)Cc2nccs2)c1C	0.467	131	508	29.8 (≈ 113 µM)	–	–
Cc1cccn(Cc2cccc(C#N)c2)c1=O	0.69	≤ 4.74	28.8	30.9 (≈ 138 µM)	–	–
CCOC(=O)N1CCC(C(=O)Nc2cccc(C)c2)CC1	–	–	–	56.3 (≈ 194 µM)	–	–
N#Cc1ccccc1Cn1nnc(-c2ccccc2)n1	0.448	10.7	211	11.4 (≈ 43.8 µM)	–	–
Nc1ccccc1OCCn1ccnc1	0.815	7.07	30.6	24.7 (≈ 121 µM)	–	–
COc1ccc(CC2CN3CCN(C(=O)OCc4ccccc4)CC3CO2)cc1 (stereo unspecified)	0.797	33.2	861	–	–	–

SMILES	MDR1-MDCK efflux ratio	intrinsic clearance, human liver microsomes [mL/min/kg]	intrinsic clearance, rat liver microsomes [mL/min/kg]	aqueous solubility [µg/mL]	fraction unbound, human plasma	fraction unbound, rat plasma
Cc1nn(C)c(C)c1C(=O)NCc1ccccc1	0.786	≤ 4.74	≤ 10.7	54.7 (≈ 225 µM)	–	–
COc1ccc(CNc2c(-c3ccc(OC)c(OC)c3)nc3cnccn23)cc1	2.42	675	1950	46.9 (≈ 120 µM)	–	–
Fc1ccc(F)c(-c2nc(C3CCOCC3)nn2-c2cccnc2)c1	1.33	≤ 4.74	72.8	35.1 (≈ 103 µM)	–	–
Cn1ncnc1NCc1cc(F)cc(F)c1	0.757	≤ 4.74	≤ 10.7	–	–	–
Cc1cc(-n2ccnc2)ccc1C(=O)O	0.417	≤ 4.74	≤ 10.7	–	–	–
Cc1ccc(C(=O)N(C)C)cc1NS(C)(=O)=O	8.3	≤ 4.74	≤ 10.7	50.3 (≈ 196 µM)	–	–
O=c1c2c(nc3ccccn13)CCN(S(=O)(=O)C1CCCCC1)C2	1.18	19.9	1100	33.2 (≈ 95.7 µM)	–	–
Cc1nn(C)c2ncc(CNc3ccon3)cc12	0.858	≤ 4.74	14.2	–	–	–
O=C1CCC(=O)N1CCSc1ncc(-c2ccc(F)cc2)[nH]1	2.4	35.6	717	–	–	–
Cc1ccc(-c2nc(CN3C(=O)C(=O)N(C4CCCC4)C3=O)cs2)cc1	0.789	–	–	0.26 (≈ 0.704 µM)	–	–
Cc1cc(C)c(C#N)c(N2CCN(CC(=O)Nc3ccccc3Cl)CC2)n1	0.804	125	804	1.09 (≈ 2.84 µM)	–	–
Cc1cc(N(C)CC(C)(C)O)ncc1Br	–	36.1	970	–	–	–
COc1ccc(-c2nnc(NC(=O)c3ccc4ccccc4c3)o2)cc1OC	–	–	–	0.27 (≈ 0.719 µM)	–	–
O=C(NCCN1CCc2ccccc2C1=O)c1ccncc1	–	13.6	240	–	–	–
CN1CCN(S(=O)(=O)c2ccc(-c3cnc(N)c(C(=O)Nc4cccnc4)n3)cc2)CC1	72.4	124	672	–	0.12	0.0823
Cc1cc(Nc2nc(N[C@@H](C)c3ncc(F)cn3)ncc2Cl)n[nH]1	10.5	8.47	46.3	–	–	–
Nc1nc2ccccc2n1C1CCCC1	–	37.1	87.6	–	–	–
Cc1ccc(-c2nc(C(=O)N3CCc4ccccc4C3)cs2)o1	0.421	187	3610	36 (≈ 111 µM)	–	–
CCOCC(=O)Nc1cccc(CN2CCCC2)c1	2.31	15	501	–	–	–
Cc1nc2cc(C(=O)N3CCc4nc5ccccc5c(=O)n4CC3)ccc2n1C	–	≤ 4.74	24.7	67.3 (≈ 174 µM)	–	–
N#CC[C@H](C1CCCC1)n1cc(-c2ncnc3[nH]ccc23)cn1	10.9	–	405	34.5 (≈ 113 µM)	0.0428	0.176
